Series [1] is described as follows: Dissolution test of poorly-soluble substances using distilled water. Format: physicochemical.
Series [2] can be described thus: Dissolution test of poorly-soluble substances using 2nd fluid for disintegration test (pH 6.8) of the Japanese Pharmacopoeia. Format: physicochemical.
Protocol: From initiation of the test, the mixed solution was stirred with a stirrer having a length of 15 mm. The rotation number of the stirrer was 120 rpm, and all of the tests were conducted in a thermostat at 37±0.5° C. Two types of test solutions, namely, distilled water and 2nd fluid for disintegration test (pH 6.8) of the Japanese Pharmacopoeia were used. As such 2nd fluid for disintegration test of the Japanese Pharmacopoeia, a solution prepared by diluting the 10-fold concentration solution of Kanto Kagaku Co., Ltd. with distilled water was used.
A comparative test was carried out in the same manner as that described above with the exception that a poorly-soluble substance or the like was used in an amount equal to that of a substance with improved aqueous solubility, instead of the substance with improved aqueous solubility.
1 mL of the solution was sampled in an Eppendorf centrifuge tube, 1, 3, 10, 30, 60, 180 and 360 minutes after initiation of the test. The thus sampled solution was centrifuged at 12,000 rpm for 5 minutes. […] In the case of the comparative test, the poorly-soluble substance or the like, which had not been dissolved in the solution, was removed. An aliquot of this supernatant was immediately frozen. The frozen sample was freeze-dried, and it was then used as a sample in the measurement of the amount of the substance with improved aqueous solubility, which had been dissolved in the test solution. The dissolved poorly-soluble substance was measured mainly using a dual wavelength absorption photometer.
Where [3] appears, read: after dissolution test for 360 minutes, distilled water, 37±0.5° C.
Where [4] appears, read: after dissolution test for 360 minutes, Second disintegration test medium (pH 6.8), 37±0.5° C.
Setting [5] is: 2nd fluid for disintegration test, elution time 1 min.
Where [6] appears, read: 2nd fluid for disintegration test, elution time 3 min.
[7] abbreviates: 2nd fluid for disintegration test, elution time 10 min.
Where [8] appears, read: 2nd fluid for disintegration test, elution time 30 min.
[9] abbreviates: 2nd fluid for disintegration test, elution time 180 min.
The mark [10] stands for this setting: 2nd fluid for disintegration test, elution time 360 min.
The mark [11] stands for this setting: 2nd fluid for disintegration test, elution time 60 min.
The mark [12] stands for this setting: 2nd fluid for disintegration test, elution time 120 min.

“And” between values parts separate entries of the source, which are not always exact repeats. Equal values may be shown once.

Turning to `COc1ccc2[nH]c([S+]([O-])Cc3ncc(C)c(OC)c3C)nc2c1` (centres unmarked) [4-1, Omeprazole], the results for the Dissolved amount in series [1] (setting [3]) and in series [2] (setting [4]) were 141.6 µg/mL and 169.9 µg/mL, respectively.
In the case of `Nc1nc(N)c2nc(-c3ccccc3)c(N)nc2n1` [6-1, Triamterene], the figures for the Dissolved amount in series [1] (setting [3]) and in series [2] (setting [4]) were 21.3 µg/mL and 18.4 µg/mL, respectively.
As to `CC(=O)Oc1ccccc1C(=O)O` [Comparative Example 1-3, Aspirin], the Dissolved amount in series [1] (setting [3]) was determined as 3110.4 µg/mL; in series [1] (water, elution time 1 min), 1831.9 µg/mL; in series [1] (water, elution time 3 min) it was 2934.9 µg/mL; in series [1] (water, elution time 10 min), 2985.3 µg/mL; in series [1] (water, elution time 60 min) it was 3105.7 µg/mL; in series [1] (water, elution time 180 min), 3108.1 µg/mL. Besides, the Dissolved amount in series [1] (water, elution time 360 min) came out at 3110.4 µg/mL; in series [2] (setting [5]), 252.7 µg/mL; in series [2] (setting [6]), 1020.4 µg/mL; in series [2] (setting [7]) it was 5352.3 µg/mL; in series [2] (setting [8]), 5963.6 µg/mL; in series [2] (setting [9]) it was 6458.1 µg/mL. Further, the Dissolved amount in series [2] (setting [10]) is 8552.7 µg/mL; in series [2] (setting [4]) it was 6552.7 µg/mL.
For `CC(=O)O[C@]1(C(C)=O)CC[C@H]2[C@@H]3C=C(Cl)C4=CC(=O)CC[C@]4(C)[C@H]3CC[C@@]21C` [Comparative Example 3-2, Chlormadinone acetate], the Dissolved amount was found to be 1.2 µg/mL in series [1] (setting [3]); 0.6 µg/mL in series [1] (water, elution time 1 min); 0.6 µg/mL in series [1] (water, elution time 3 min); 0.7 µg/mL in series [1] (water, elution time 10 min); 0.9 µg/mL in series [1] (water, elution time 30 min); 1.0 µg/mL in series [1] (water, elution time 60 min). Also, the Dissolved amount in series [1] (water, elution time 180 min) is 1.1 µg/mL; in series [1] (water, elution time 360 min), 1.2 µg/mL; in series [2] (setting [5]), 1.4 µg/mL; in series [2] (setting [6]), 1.4 µg/mL; in series [2] (setting [7]) it was 1.8 µg/mL; in series [2] (setting [8]), 1.0 µg/mL. For the same compound, the Dissolved amount in series [2] (setting [11]) amounted to 1.0 µg/mL; in series [2] (setting [9]) it was 2.3 µg/mL; in series [2] (setting [10]), 2.8 µg/mL; in series [2] (setting [4]), 2.8 µg/mL.
As to `CC(C)(Sc1cc(C(C)(C)C)c(O)c(C(C)(C)C)c1)Sc1cc(C(C)(C)C)c(O)c(C(C)(C)C)c1` [Comparative Example 5-3, Probucol], the Dissolved amount in series [1] (setting [3]) stood at 9.7 µg/mL; in series [1] (water, elution time 1 min), 0.7 µg/mL; in series [1] (water, elution time 3 min), 2.7 µg/mL; in series [1] (water, elution time 10 min), 3.7 µg/mL; in series [1] (water, elution time 30 min), 6.1 µg/mL; in series [1] (water, elution time 60 min) it was 7.6 µg/mL. Moreover, the Dissolved amount stood at 8.3 µg/mL in series [1] (water, elution time 180 min); 9.7 µg/mL in series [1] (water, elution time 360 min); 4.7 µg/mL in series [2] (setting [5]); 14.9 µg/mL in series [2] (setting [6]); 19.9 µg/mL in series [2] (setting [7]); 21.2 µg/mL in series [2] (setting [8]). Moreover, the Dissolved amount in series [2] (setting [11]) is 21.8 µg/mL; in series [2] (setting [9]), 26.8 µg/mL; in series [2] (setting [10]), 28.0 µg/mL; in series [2] (setting [4]), 28.0 µg/mL.
With `Cn1c(=O)c2[nH]cnc2n(C)c1=O` [Comparative Example 15, Theophylline], the Dissolved amount amounted to 7082.2 µg/mL in series [1] (water, elution time 1 min); 7897.9 µg/mL in series [1] (water, elution time 3 min); 8554.7 µg/mL in series [1] (water, elution time 10 min); 8621.6 µg/mL in series [1] (water, elution time 30 min); 8652.4 µg/mL in series [1] (water, elution time 60 min); 8672.3 µg/mL in series [1] (water, elution time 180 min). Further, the Dissolved amount is 8691.5 µg/mL in series [1] (water, elution time 360 min); 8133.8 µg/mL in series [2] (setting [5]); 8635.7 µg/mL in series [2] (setting [6]); 8596.0 µg/mL in series [2] (setting [7]); 8929.7 µg/mL in series [2] (setting [8]); 9096.5 µg/mL in series [2] (setting [11]). In addition, the Dissolved amount in series [2] (setting [9]) was 8906.5 µg/mL; in series [2] (setting [10]) it was 8906.2 µg/mL.
For `CC1(C)[C@@H](O[C@H]2O[C@H](C(=O)O)[C@@H](O)[C@H](O)[C@H]2O[C@@H]2O[C@H](C(=O)O)[C@@H](O)[C@H](O)[C@H]2O)CC[C@]2(C)[C@H]3C(=O)C=C4[C@@H]5C[C@@](C)(C(=O)O)CC[C@]5(C)CC[C@@]4(C)[C@]3(C)CC[C@@H]12` [Comparative Example 16, Ammonium Glycyrrhizinate], the Dissolved amount is 2668.0 µg/mL in series [1] (water, elution time 1 min); 4621.4 µg/mL in series [1] (water, elution time 3 min); 6792.2 µg/mL in series [1] (water, elution time 30 min); 7374.5 µg/mL in series [1] (water, elution time 60 min); 8826.1 µg/mL in series [1] (water, elution time 180 min); 8948.1 µg/mL in series [1] (water, elution time 360 min). The Dissolved amount was 5113.7 µg/mL in series [2] (setting [5]), 7012.3 µg/mL in series [2] (setting [6]) and 9096.3 µg/mL in series [2] (setting [7]).
`NC(N)=Nc1nc(CSCCC(N)=NS(N)(=O)=O)cs1` [Comparative Example 17, Famotidine]: the Dissolved amount came to 1162.9 µg/mL in series [1] (water, elution time 1 min); 1416.8 µg/mL in series [1] (water, elution time 3 min); 1502.6 µg/mL in series [1] (water, elution time 10 min); 1566.8 µg/mL in series [1] (water, elution time 30 min); 1565.8 µg/mL in series [1] (water, elution time 60 min); 1509.8 µg/mL in series [1] (water, elution time 180 min). In addition, the Dissolved amount came out at 1497.4 µg/mL in series [1] (water, elution time 360 min); 1980.2 µg/mL in series [2] (setting [5]); 2286.6 µg/mL in series [2] (setting [6]); 2541.7 µg/mL in series [2] (setting [7]); 2600.9 µg/mL in series [2] (setting [8]); 2667.9 µg/mL in series [2] (setting [11]). This compound also yielded a Dissolved amount in series [2] (setting [10]) of 2410.4 µg/mL.
For the compound `COc1ccc(Cl)cc1C(=O)NCCc1ccc(S(=O)(=O)NC(=O)NC2CCCCC2)cc1` [compound 11, Glibenclamide], the Dissolved amount in series [1] (setting [3]) came to 6.4 µg/mL; in series [2] (setting [4]), 8.0 µg/mL.
`COc1cc(Cc2cnc(N)nc2N)cc(OC)c1OC` [compound 13, Trimethoprim]: the figures for the Dissolved amount in series [1] (setting [3]) and in series [2] (setting [4]) were 656.3 µg/mL and 1321.9 µg/mL, respectively.
Consider `CCC1(c2ccccc2)C(=O)NCNC1=O` [compound 14, Primidone], for which the results for the Dissolved amount in series [1] (setting [3]) and in series [2] (setting [4]) were 180.3 µg/mL and 335.2 µg/mL, respectively.
On to `CN/C(=N/CCSCc1nc[nH]c1C)NC#N` [compound 19, Cimetidine], for which the Dissolved amount turned out to be 8160.2 µg/mL in series [1] (Dissolution test using water, elution time 10 min); 7564.5 µg/mL in series [1] (Dissolution test using water, elution time 30 min); 7898.3 µg/mL in series [1] (Dissolution test using water, elution time 120 min); 7166.4 µg/mL in series [1] (Dissolution test using water, elution time 360 min); 8676.7 µg/mL in series [2] (setting [6]); 9475.2 µg/mL in series [2] (setting [12]). The compound further registered a Dissolved amount in series [2] (setting [10]) of 8810.0 µg/mL.
Consider `COc1ccc2c(c1)c(CC(=O)O)c(C)n2C(=O)c1ccc(Cl)cc1` [compound 20, Indomethacin], for which the Dissolved amount in series [1] (water, elution time 3 min) stood at 7.8 µg/mL; in series [1] (water, elution time 10 min), 7.9 µg/mL; in series [1] (water, elution time 30 min), 8.0 µg/mL; in series [1] (water, elution time 120 min), 8.5 µg/mL; in series [1] (water, elution time 360 min), 8.2 µg/mL; in series [2] (setting [6]) it was 627.9 µg/mL. In addition, the Dissolved amount in series [2] (setting [7]) stood at 693.7 µg/mL; in series [2] (setting [8]), 821.8 µg/mL; in series [2] (setting [12]), 928.5 µg/mL; in series [2] (setting [10]), 1114.4 µg/mL.
Take `O=C1NC(=O)C(c2ccccc2)(c2ccccc2)N1` [compound 21, Phenyloin]: the Dissolved amount in series [1] (water, elution time 3 min) amounted to 26.5 µg/mL; in series [1] (water, elution time 10 min) it was 23.3 µg/mL; in series [1] (water, elution time 360 min), 24.1 µg/mL; in series [2] (setting [6]), 17.4 µg/mL; in series [2] (setting [7]) it was 42.1 µg/mL; in series [2] (setting [8]) it was 50.7 µg/mL. For the same compound, the Dissolved amount in series [2] (setting [12]) came to 27.2 µg/mL; in series [2] (setting [10]) it was 32.5 µg/mL.
Turning to `NC(=O)N1c2ccccc2C=Cc2ccccc21` [compound 22, Carbamazepine], the Dissolved amount in series [1] (water, elution time 3 min) is 291.2 µg/mL; in series [1] (water, elution time 10 min) it was 234.8 µg/mL; in series [1] (water, elution time 30 min), 214.3 µg/mL; in series [1] (water, elution time 120 min) it was 159.5 µg/mL; in series [1] (water, elution time 360 min), 153.0 µg/mL; in series [2] (setting [6]) it was 346.6 µg/mL. For the same compound, the Dissolved amount is 352.2 µg/mL in series [2] (setting [7]), 413.9 µg/mL in series [2] (setting [8]), 282.1 µg/mL in series [2] (setting [12]) and 199.3 µg/mL in series [2] (setting [10]).
Turning to `CC(=O)Nc1nnc(S(N)(=O)=O)s1` [compound 23, Acetazolamide], the Dissolved amount in series [1] (water, elution time 3 min) was found to be 1040.6 µg/mL; in series [1] (water, elution time 10 min), 1238.7 µg/mL; in series [1] (water, elution time 30 min), 1244.8 µg/mL; in series [1] (water, elution time 120 min) it was 1251.4 µg/mL; in series [1] (water, elution time 360 min) it was 1212.0 µg/mL; in series [2] (setting [6]), 1331.6 µg/mL. For the same compound, the Dissolved amount was found to be 1721.6 µg/mL in series [2] (setting [12]) and 1654.9 µg/mL in series [2] (setting [10]).
As for `CC(=O)SC[C@@H](C)C(=O)N1CCC[C@H]1C(=O)N[C@@H](Cc1ccccc1)C(=O)O` [compound 24, Alacepril], the Dissolved amount in series [1] (water, elution time 3 min) was 526.2 µg/mL; in series [1] (water, elution time 10 min), 805.6 µg/mL; in series [1] (water, elution time 30 min), 931.2 µg/mL; in series [1] (water, elution time 120 min) it was 994.9 µg/mL; in series [1] (water, elution time 360 min) it was 996.5 µg/mL; in series [2] (setting [6]), 2311.1 µg/mL. Moreover, in series [2] (setting [8]), the Dissolved amount was 2525.0 µg/mL.
With `CNC[C@H](O)c1ccc(O)c(O)c1` [compound 29, Epinephrine], the Dissolved amount in series [2] is 2001.7 µg/mL and 2061.7 µg/mL and 2129.3 µg/mL and 2102.5 µg/mL.

(Values after US9023398B2, “Method for improving the aqueous solubility of poorly-soluble substances” (Kabushiki Kaisha Sangi, priority 2009, dated 2015).)
